Patent US20230312631A1, “EXTRUSION PROCESS FOR THE PREPARATION OF A SOLID ALLULOSE COMPOSITION” (SAVANNA INGREDIENTS GMBH, priority 2020, published 2023)
Where two headings read alike, the source gives them in different places.

Legend:
[1] = cited from earlier work
[2] = cited from earlier work; remark: listed apart in the source
[3] = Preliminary tests to estimate supersaturation and undercooling of carbohydrates in water; format: physicochemical
Source text: Therefore, preliminary tests were made in order to estimate supersaturation and overcooling of various carbohydrates in water under different conditions.

[4] = Mutarotation: angle of rotation over time after dissolving allulose in water (polarimeter); format: physicochemical; conditions: 23° C.; for angle of rotation: desalted water, DS about 26 wt.-%
Experimental: Crystalline allulose was dissolved in water (DS 26 wt.-%). Quickly afterwards, the sample was placed in a polarimeter and the angle of rotation was read off at regular intervals ([…], 23° C.). From this, the angle of rotation was then plotted over time (see FIG. 1). 74.30 g of water and 26.05 g of crystalline allulose were mixed. The mixture was briefly stirred with a stir bar until the allulose was completely dissolved. Then a sample was placed in the polarimeter and the angle of rotation of the same sample was measured at regular intervals. There were approximately 5 minutes between the addition of the allulose and the first measured value (0 min).
Mutarotation of solid allulose obtained in accordance with the present invention was compared to mutarotation of highly crystalline allulose. For this purpose, solutions at a dry substance content of about DS 26 wt.-% were prepared from powdery compositions each having a particle size within the range of from 100 to 200 μm (sieve fraction).
15.61 g of powdery crystalline allulose (comparative) of grain size 100-200 μm were dissolved at 23° C. in 47.6 g desalted water in a 500 mL beaker. The angle of rotation was measured over time with a polarimeter.
13.00 g of extruded allulose (inventive) of grain size 100-200 μm were dissolved at 23° C. in 37.07 g desalted water in a 500 mL beaker. The angle of rotation was measured over time with a polarimeter.
For the sake of better comparability, the specific angle of rotation [(° *ml)/(dm*g)] was calculated for each measured value. The results are visualized in FIG. 2.

[5] = cited from earlier work; remark: listed apart in the source
[6] = in water, 13C NMR (du Penhoat et al.)
[7] = mass fraction 70% prior to evaporation, temperature 150° C.
[8] = mass fraction 80% prior to evaporation, temperature 190° C.
[9] = mass fraction 90%, temperature 58° C.
[10] = mass fraction 80%, temperature 149° C.

**Q.** What does the source list for `O=C(CO)C(O)C(O)C(O)CO` [allulose, D-allulose]?
**A.** rate constant k of development of open-chain carbonyl-form in solution (first-order) ([1]; absorbance at 280 nm after dissolution): 4.44 ms^−1; equilibrium content of carbonyl-form ([1]; in solution): about 0.2%; percent composition of anomeric forms: keto form ([2]; in D2O at 303.15 K): 0.2%; percent composition of anomeric forms: α-furanose ([2]; in D2O at 303.15 K): 39%; percent composition of anomeric forms: α-pyranose ([2]; in D2O at 303.15 K): 22%; percent composition of anomeric forms: β-furanose ([2]; in D2O at 303.15 K): 15%; percent composition of anomeric forms: β-pyranose ([2]; in D2O at 303.15 K): 24%; equilibrium composition: α-furanose [2, 6]: 37%; equilibrium composition: α-pyranose [2, 6]: ~26%; equilibrium composition: β-furanose [2, 6]: ~11%; equilibrium composition: β-pyranose [2, 6]: ~26%; supersaturation [3, 7]: −27%; undercooling [3, 7]: −54K; supersaturation [3, 8]: −19%; undercooling [3, 8]: −94K; time until the angle of rotation remains constant (chiral species in solution equilibrated) ([4]; 26.05 g crystalline allulose in 74.30 g water, DS 26 wt.-%, FIG. 1): more than 1 hour; solubility ([5]; 25° C.): 291 g per 100 g water; solubility in water ([5]; 25° C.): 291 g in 100 g of water; solubility in water expressed as mass fraction ([5]; 25° C.): 74%; solubility in water ([5]; 50° C.): 489 g in 100 g of water; solubility in water expressed as mass fraction ([5]; 50° C.): 83%

**Q.** Which results are given for `O=C(CO)C(O)C(O)C(O)CO` (stereo not drawn) [comparative, allulose]?
**A.** angle of rotation ([4]; time 0 min): −33.4 °; angle of rotation ([4]; time 0.5 min): −31.1 °; angle of rotation ([4]; time 1 min): −29 °; angle of rotation ([4]; time 1.5 min): −27 °; angle of rotation ([4]; time 2 min): −25.1 °; angle of rotation ([4]; time 2.5 min): −23.35 °; angle of rotation ([4]; time 3 min): −21.7 °; angle of rotation ([4]; time 3.5 min): −20.13 °; angle of rotation ([4]; time 4 min): −18.71 °; angle of rotation ([4]; time 4.5 min): −17.36 °; angle of rotation ([4]; time 5 min): −16.1 °; angle of rotation ([4]; time 5.5 min): −14.91 °; angle of rotation ([4]; time 6 min): −13.8 °; angle of rotation ([4]; time 6.5 min): −12.78 °; angle of rotation ([4]; time 7 min): −11.81 °; angle of rotation ([4]; time 7.5 min): −10.9 °; angle of rotation ([4]; time 8 min): −10.05 °; angle of rotation ([4]; time 8.5 min): −9.25 °; angle of rotation ([4]; time 9 min): −8.51 °; angle of rotation ([4]; time 9.5 min): −7.81 °; angle of rotation ([4]; time 10 min): −7.18 °; angle of rotation ([4]; time 10.5 min): −6.57 °; angle of rotation ([4]; time 11 min): −6 °; angle of rotation ([4]; time 11.5 min): −5.47 °; angle of rotation ([4]; time 12 min): −4.98 °; angle of rotation ([4]; time 12.5 min): −4.51 °; angle of rotation ([4]; time 13 min): −4.08 °; angle of rotation ([4]; time 13.5 min): −3.67 °; angle of rotation ([4]; time 14 min): −3.29 °; angle of rotation ([4]; time 14.5 min): −2.93 °; angle of rotation ([4]; time 15 min): −2.6 °; angle of rotation ([4]; time 15.5 min): −2.29 °; angle of rotation ([4]; time 16 min): −2 °; angle of rotation ([4]; time 16.5 min): −1.72 °; angle of rotation ([4]; time 17 min): −1.47 °; angle of rotation ([4]; time 17.5 min): −1.23 °; angle of rotation ([4]; time 18 min): −1 °; angle of rotation ([4]; time 18.5 min): −0.8 °; angle of rotation ([4]; time 19 min): −0.6 °; angle of rotation ([4]; time 19.5 min): −0.41 °; angle of rotation ([4]; time 20 min): −0.24 °; angle of rotation ([4]; time 20.5 min): −0.08 °; angle of rotation ([4]; time 21 min): 0.07 °; angle of rotation ([4]; time 21.5 min): 0.22 °; angle of rotation ([4]; time 22 min): 0.35 °; angle of rotation ([4]; time 22.5 min): 0.47 °; angle of rotation ([4]; time 23 min): 0.59 °; angle of rotation ([4]; time 23.5 min): 0.7 °; angle of rotation ([4]; time 24 min): 0.8 °; angle of rotation ([4]; time 24.5 min): 0.9 °; angle of rotation ([4]; time 25 min): 0.99 °; angle of rotation ([4]; time 25.5 min): 1.07 °; angle of rotation ([4]; time 26 min): 1.15 °; angle of rotation ([4]; time 26.5 min): 1.22 °; angle of rotation ([4]; time 27 min): 1.29 °; angle of rotation ([4]; time 27.5 min): 1.36 °; angle of rotation ([4]; time 28 min): 1.42 °; angle of rotation ([4]; time 28.5 min): 1.48 °; angle of rotation ([4]; time 29 min): 1.53 °; angle of rotation ([4]; time 29.5 min): 1.58 °; angle of rotation ([4]; time 30 min): 1.63 °; angle of rotation ([4]; time 35 min): 1.96 °; angle of rotation ([4]; time 40 min): 2.13 °; angle of rotation ([4]; time 45 min): 2.22 °; angle of rotation ([4]; time 50 min): 2.26 °; angle of rotation ([4]; time 55 min): 2.29 °; angle of rotation ([4]; time 60 min): 2.30 °

**Q.** With `OC[C@H]1O[C@H](OC[C@H]2OC(O)(CO)[C@@H](O)[C@@H]2O)[C@H](O)[C@@H](O)[C@@H]1O` (stereo partly drawn) [isomaltulose] as the compound, how does the supersaturation [3, 9] read?
**A.** 35%

**Q.** What about the undercooling [3, 9] of the same compound?
**A.** 62K

**Q.** For `OC[C@H]1O[C@@](CO)(O[C@H]2O[C@H](CO)[C@@H](O)[C@H](O)[C@H]2O)[C@@H](O)[C@@H]1O` [sucrose], which supersaturation [3, 10] is on record?
**A.** −14%

**Q.** What about the undercooling [3, 10] of the same compound?
**A.** 37K

**Q.** Which “Mutarotation [α]” value ([1]; in water) does the source give for `OC[C@@]1(O)OC[C@@H](O)[C@@H](O)[C@H]1O` [β-D-psicopyranose] here?
**A.** about −85 deg dm^−1 cm^3
